According to patent US7723473B2, “Peptide antagonists of TGF-beta family members and therapeutic uses thereof” (St. Louis University, priority 1997, dated 2010):
“Also recorded” adds a separate entry of the source.

Key:
[1] = test system: type V TGF-β receptor (TβR-V); experiment: 125I-TGF-β1-affinity labeling of cell-surface type V TGF-β receptor in mink lung epithelial cells; format: binding; conditions: peptide at 2.3 μM
Experimental: (§1) ^125I-TGF-β1-affinity labeling of cell-surface TGF-β receptors in mink lung epithelial cells. Mink lung epithelial cells grown on 60-mm Petri dishes were incubated with 0.1 nM […] the presence of various concentrations of peptide β1^25 (41-65) or peptide β3^25 (41-65) in binding buffer. After 2.5 hr at 0° C., ^125I-TGF-β1-affinity labeling was carried out in the presence of DSS as described. The ^125I-TGF-β1-affinity-labeled TGF-β receptors were analyzed by 5% SDS-polyacrylamide gel electrophoresis under reducing conditions and autoradiography.

[2] = test system: type I, type II, and type III TGF-β receptors; experiment: 125I-TGF-β1-affinity labeling of other cell-surface TGF-β receptor types in mink lung epithelial cells; format: binding; conditions: peptide at 2.3 μM
Experimental: as §1

[3] = test system: mink lung epithelial cells; experiment: Blocking of TGF-β1-induced growth inhibition ([methyl-3H]thymidine incorporation, DNA synthesis); format: cell-based
Experimental: (§2) [Methyl-^3H]thymidine Incorporation—Mink lung epithelial cells grown on 24-well clustered dishes were incubated with various concentrations of TGF-β1 in the presence and absence of peptide β1^25 (41-65) or with various concentrations of peptide β1^25 (41-65)-CA, and peptide β1^25 (41-65)-BSA in DMEM containing 0.1% fetal calf serum. After 16 hr at 37° C., the cells were pulsed with 1 μCi/ml of [methyl-^3H]thymidine for 4 hr. The cells were then washed twice with 1 ml of 10% trichloroacetic acid and once with 0.5 ml of ethanol:ether (2:1, v/v). The cells were then dissolved in 0.4 ml of 0.2 N NaOH and counted with a liquid scintillation counter.

PAI-1 expression = PAI-1 expression in mink lung epithelial cells (Northern blot); format: cell-based; conditions: 0.25 ρM and 2.5 ρM TGF-β1
Experimental: RNA Analysis—Mink lung epithelial cells were grown overnight in 12-well clustered dishes in DMEM containing 10% fetal calf serum. The medium was then changed to DMEM containing 0.1% fetal calf serum and the cells were incubated with 0.25 and 2.5 ρM TGF-β1 in the presence of various concentrations of peptide β1^25 (41-65) for 2.5 hr. Total cellular RNA was extracted using RNAzol B (Tel-Test Inc.) according to the manufacturer's protocol. RNA was electrophoresed in 1.2% agarose-formaldehyde gel and transferred to Duralon-UV membranes using 10×SSC. The membranes were probed at 42° C. with a random-primed, radiolabeled 1-kb fragment from the Hind III and NeoI digests of PAI-1 cDNA and glyceraldehyde-3-phosphate dehydrogenase (“GAPDH”) cDNA. The blots were washed with 0.1×SSC containing 0.1% SDS at room temperature.

[4] = test system: mink lung epithelial cells; experiment: Mink lung epithelial cell growth measured by DNA synthesis without added TGF-β1 (agonist activity); format: cell-based
Experimental: as §2

excision wounds = experiment: Pig excision wound model; format: in vivo; conditions: for deposition / immunostaining of fibronectin in excision wounds / deposition / immunostaining of type I collagen in excision wounds: post-excision day 30 (legend: day 28), immunohistochemistry
Experimental: (§3) Preparation of IntraSite® gel containing TGF-β peptantagonist (peptide TGF-beta antagonist). 1 ml of sterile 6 mM peptide β1^25 (41-65) in phosphate buffered saline or 1 ml of sterile phosphate buffered saline was vigorously mixed with 3 ml of IntraSite® gel using two 10 ml syringes connected with a three-way connector. […] However, 1.5 mM of peptide β1^25 (41-65) was used throughout the experiments described below.
(§4) Excision wound model. Four pigs received intramuscular injection of ketamine, strenil® and atropine as described above. Six excision injuries were generated by removing full-thickness sections of skin (3×3 cm) from standardized sites on the back of each animal using a scapel. Three rabbits, were anesthetized by intramuscular injection of ketamine (5 mg/kg). Three excision injuries were produced in each by removing full-thickness sections of skin (0.5×1 cm) from each ear. After wounds, a thin layer of IntraSite® gel containing peptide β1^25 (41-65) was applied to alternating wounds on each animal and IntraSite® gel+buffer was applied to the other half. The excision wounds were then dressed with a paraffin gauze. For pig experiments, the dressing was changed every two days for the first 10 days and twice a week for the next 30 days. For rabbit experiments, the dressing was changed for the first 3 days. Gel containing peptide β1^25 (41-65) or control gel was applied at each dressing change.
Assessment of wound healing. Wound healing was assessed by evaluating the rates of wound re-epithelization and contraction. The open wound area and the area enclosed by the normal hair bearing skin were measured using the macrophotography technique (Ref. 14). The healing rate was monitored every two days for the first 10 days and twice a week for 30 more days. Wound reepithelialization as a percent of the original wound size was calculated using the following formula:
[formula] where C=rate of wound contraction in percent; Al=wound area as measured immediately following the burn or excision injury; An=area enclosed by normal hair bearing skin.
Immunohistochemistry. The wounds were frozen immediately after being removed from animals on post-excision day 30. Serial sections were placed on polylysine-coated slides. The sections containing wound areas were stained with hematoxylin/eosin and monoclonal antibodies to type I collagen and fibronectin and biotin-conjugated rabbit anti-mouse IgG/streptavidin-conjugated horseradish peroxidase (Ref. 16). The stained sections were examined and photographed by light microscopy.

ear excision wounds = experiment: Rabbit ear excision wound model; format: in vivo; conditions: for scar formation: post-excision day 10
Experimental: as §3, §4
Measurement of scar. The volumes of scar tissue were estimated by multiplying their thickness by the size of the scar on post-burn day 41 in pigs and post-excision day 10 in rabbits.

Which “inhibition of 125I-TGF-β1-affinity labeling of the type V TGF-β receptor” value [1] does the source give for “ANFCLGPCPYIWSLDTQYSKVLALY [peptide β1^25 (41-65)]” here?
Its value is “almost completely abolished”.

And the “inhibition of 125I-TGF-β1-affinity labeling of other TGF-β receptor types” value [2]?
Its value is 30-40%.

And the “blocking of DNA synthesis inhibition induced by TGF-β1” value ([3]; 0.025 ρM and 0.25 ρM TGF-β1, 18 μM peptide)?
Its value is “completely blocked”.

And the “blocking of TGF-β1-induced growth inhibition, dose dependence” value ([3]; 0.25 ρM TGF-β1, various concentrations of peptide)?
Its value is “concentration-dependent manner”.

What about the “blocking of PAI-1 expression stimulated by TGF-β1” value (PAI-1 expression) of the same sequence?
The value was “completely blocked”.

What about the “effect on DNA synthesis in the absence of TGF-β1” value ([4]; 0.1 μM to 36 μM peptide) of the same sequence?
Its value is “did not have an effect”.

What about the “reversal of growth inhibition induced by 0.2 μM β1^25 (41-65)-CA” value ([4]; 10 μM peptide, data not shown) of the same sequence?
Its value is “abolished”.

And the “contraction of the wound” value (excision wounds; 1.5 mM in gel, topical)?
The value was “attenuated contraction”.

And the “vertical (length of the healed wound) contraction versus vehicle only” value (excision wounds; 1.5 mM in gel, topical)?
Its value is “less vertical”.

What about the “vertical (length of the healed wound) contraction versus vehicle only” value (excision wounds; 1.5 mM in gel, topical, listed as TGF-β peptantagonist) of the same sequence?
Its value is “contracted vertically less; also recorded: less vertical”.

And the “deposition / immunostaining of fibronectin in excision wounds” value (excision wounds)?
The value was “diminished the deposition”.

What about the “deposition / immunostaining of type I collagen in excision wounds” value (excision wounds) of the same sequence?
The value was “diminished the deposition”.

What about the “deposition / immunostaining of fibronectin in excision wounds” value (excision wounds; listed as TGF-β peptantagonist) of the same sequence?
The value was “less intensity of staining”.

What about the “deposition / immunostaining of type I collagen in excision wounds” value (excision wounds; listed as TGF-β peptantagonist) of the same sequence?
The value was “less intensity of staining”.

What about the “horizontal (width of the healed wound) contraction” value (excision wounds; post-excision day 41) of the same sequence?
The value was “almost contracted completely”.

What about the scar formation (ear excision wounds) of the same sequence?
The scar formation was “attenuated scar formation”.

And the “volume of scar tissue” value (ear excision wounds; post-excision day 10, n=6, estimated)?
Its value is 0.005±0.01 cm^3.

And the scar formation (ear excision wounds; listed as TGF-β-peptantagonist)?
The scar formation was “reduced scarring”.
